Measured values: article PMC11335189, “Revealing molecular determinants governing mambalgin-3 pharmacology at acid-sensing ion channel 1 variants” (Cellular and Molecular Life Sciences: CMLS, 2024)
Positions of bridges follow the written chain, without caps; N, C: chain ends. No end group written: not given here.

Assays:
hASIC1a = target: T1, hASIC1a (Homo sapiens, UniProt P78348); test: TEVC in Xenopus laevis oocytes expressing hASIC1a; assay type: cell-based; conditions: for loss of potency relative to wild-type Ma-3: conditioning pH 7.45, stimulating pH 6
T1 construct: expressed in transfected cells; host or cells: Xenopus laevis oocytes (cRNA injection)
T1 sequence (P78348 1-528): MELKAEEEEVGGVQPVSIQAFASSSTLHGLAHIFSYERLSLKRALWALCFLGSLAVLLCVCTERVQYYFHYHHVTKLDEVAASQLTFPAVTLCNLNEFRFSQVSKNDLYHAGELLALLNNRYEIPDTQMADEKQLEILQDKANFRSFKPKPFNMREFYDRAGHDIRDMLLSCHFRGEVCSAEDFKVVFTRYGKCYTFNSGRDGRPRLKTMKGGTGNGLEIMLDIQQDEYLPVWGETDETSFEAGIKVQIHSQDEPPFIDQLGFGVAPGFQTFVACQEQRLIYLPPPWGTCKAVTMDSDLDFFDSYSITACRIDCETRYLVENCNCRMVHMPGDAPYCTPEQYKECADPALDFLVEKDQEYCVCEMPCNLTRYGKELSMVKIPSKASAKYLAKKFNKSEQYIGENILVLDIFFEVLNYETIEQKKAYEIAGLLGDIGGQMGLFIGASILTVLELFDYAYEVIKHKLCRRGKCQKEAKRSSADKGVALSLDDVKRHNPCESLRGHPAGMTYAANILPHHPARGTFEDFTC
Procedure: Two-electrode voltage-clamp (TEVC) experiments using Xenopus laevis oocytes were conducted as previously described. Briefly, oocytes were surgically removed from anaesthetised female frogs, then treated with collagenase (~ 1 mg/ml, Sigma type I) for 2 h under agitation at room temperature. cRNAs were synthesised using a mMessage mMachine T7 or SP6 transcription kit (Thermo Fisher Scientific Australia Pty Ltd, Scoresby, VIC, Australia) and injected into healthy stage V–VI oocytes at 0.2–20 ng per cell. Different amounts of RNA were used for different wild-type and mutant constructs, as well as to titrate expression levels to record over multiple days and maintaining consistent expression levels. Injected oocytes were incubated at 17 °C for 1–7 days in 50% Leibovitz’s L-15 medium (Gibco, Thermo Fisher Scientific Australia Pty Ltd, Scoresby, VIC, Australia), supplemented with 25 µg/mL gentamicin, 25 µg/mL streptomycin, and 2.5% fetal horse serum. Membrane currents were recorded 2–7 days after cRNA-injection under voltage-clamp at -60 mV (Axon Axoclamp 900 A, Molecular Devices, CA, USA) using two standard glass microelectrodes of 0.5–1 MΩ resistance when filled with 3 M KCl solution. Data were sampled at 2 kHz and filtered at 0.1 kHz using Clampex 10 software (Molecular Devices, CA, USA). […]
Specific to this work, the standard protocol was for oocytes to be conditioned at pH 7.45 and channels stimulated every 60 s using a 5 s pH 5 or 6 application, unless stated otherwise. […] Activation curves were determined by conditioning oocytes at pH 8 (Fig. 2e − g; and Fig. 5a and b) or 7.45 (Fig. 6; and Supplementary Fig. 2d and c) for 55 s and applying low pH stimuli from 7.25 to 5.0 for 5 s. Steady-state desensitisation (SSD) was determined by applying conditioning solutions of pH values from 8 to 6 for 115 s prior to stimulation by a pH drop to 5 for 5 s. […] Control pH-dependence curves were determined in the absence of any Ma-3. […]
Data were analysed using pCLAMP-Clampfit software (Version 11, Molecular Devices, CA, USA) and GraphPad Prism 9.5 and 10.2.2 (GraphPad Software, San Diego, CA, USA). […]

[1] = target: T2, rASIC1a S83T/Q84E/R175C/E177G (SQRE) (Rattus norvegicus, UniProt P55926, E177G/Q84E/R175C/S83T); test: TEVC oocytes, rASIC1a quadruple mutant SQRE; assay type: cell-based; conditions: for remaining activity at 0.3 µM: 300 nM peptide, conditioning pH 7.45, stimulating pH 6, read-out: I/Icontrol
T2 construct: expressed in transfected cells; host or cells: Xenopus laevis oocytes (cRNA injection)
T2 sequence (P55926 1-526 S83T/Q84E/R175C/E177G): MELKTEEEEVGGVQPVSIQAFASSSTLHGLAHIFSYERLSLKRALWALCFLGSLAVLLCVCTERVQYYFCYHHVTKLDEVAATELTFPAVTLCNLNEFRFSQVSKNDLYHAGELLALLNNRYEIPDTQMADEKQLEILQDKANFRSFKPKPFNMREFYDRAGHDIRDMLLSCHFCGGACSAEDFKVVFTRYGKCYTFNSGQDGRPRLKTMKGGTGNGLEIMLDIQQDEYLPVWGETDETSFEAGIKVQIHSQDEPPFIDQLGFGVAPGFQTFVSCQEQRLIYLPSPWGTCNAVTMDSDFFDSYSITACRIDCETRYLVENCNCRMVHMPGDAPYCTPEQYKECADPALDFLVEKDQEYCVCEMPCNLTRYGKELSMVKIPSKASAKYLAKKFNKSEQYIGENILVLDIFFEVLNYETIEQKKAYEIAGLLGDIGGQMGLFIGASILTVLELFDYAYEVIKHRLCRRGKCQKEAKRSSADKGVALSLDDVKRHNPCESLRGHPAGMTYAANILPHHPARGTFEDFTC
Procedure: Two-electrode voltage-clamp (TEVC) experiments using Xenopus laevis oocytes were conducted as previously described. Briefly, oocytes were surgically removed from anaesthetised female frogs, then treated with collagenase (~ 1 mg/ml, Sigma type I) for 2 h under agitation at room temperature. cRNAs were synthesised using a mMessage mMachine T7 or SP6 transcription kit (Thermo Fisher Scientific Australia Pty Ltd, Scoresby, VIC, Australia) and injected into healthy stage V–VI oocytes at 0.2–20 ng per cell. Different amounts of RNA were used for different wild-type and mutant constructs, as well as to titrate expression levels to record over multiple days and maintaining consistent expression levels. Injected oocytes were incubated at 17 °C for 1–7 days in 50% Leibovitz’s L-15 medium (Gibco, Thermo Fisher Scientific Australia Pty Ltd, Scoresby, VIC, Australia), supplemented with 25 µg/mL gentamicin, 25 µg/mL streptomycin, and 2.5% fetal horse serum. Membrane currents were recorded 2–7 days after cRNA-injection under voltage-clamp at -60 mV (Axon Axoclamp 900 A, Molecular Devices, CA, USA) using two standard glass microelectrodes of 0.5–1 MΩ resistance when filled with 3 M KCl solution. Data were sampled at 2 kHz and filtered at 0.1 kHz using Clampex 10 software (Molecular Devices, CA, USA). A microperfusion system was used to allow fast extracellular solution exchange (bath volume = ~ 30 µL). All experiments were performed at room temperature (18–23 °C) in ND96 (96 mM NaCl, 2 mM KCl, 1.8 mM CaCl2, 2 mM MgCl2, 5 mM HEPES, pH 7.45). In solutions below pH 6.8, HEPES was replaced by MES. All solutions containing peptides contained 0.05% fatty acid free bovine serum albumin to decrease adsorptive losses of peptide to plasticware. For all channels tested, control current magnitudes between 500 and 9000 nA when tested using a conditioning pH of 7.45 and stimulating pH of 6 (except for the chimeras that were stimulated with pH 5) were used for data collection. Before recording any experiments, oocytes were stimulated multiple times with low pH to minimise and stabilise tachyphylaxis/desensitisation, which were then accounted for during analysis. Complete recovery of currents from Ma-3 induced modulation within 3 min of washout at all channels tested allowed for correction for tachyphylaxis/desensitisation during analyses.
Specific to this work, the standard protocol was for oocytes to be conditioned at pH 7.45 and channels stimulated every 60 s using a 5 s pH 5 or 6 application, unless stated otherwise. For all concentration-response data, peptides were applied for ~ 50 s between each low pH stimulus application. Activation curves were determined by conditioning oocytes at pH 8 (Fig. 2e − g; and Fig. 5a and b) or 7.45 (Fig. 6; and Supplementary Fig. 2d and c) for 55 s and applying low pH stimuli from 7.25 to 5.0 for 5 s. Steady-state desensitisation (SSD) was determined by applying conditioning solutions of pH values from 8 to 6 for 115 s prior to stimulation by a pH drop to 5 for 5 s. Ma-3 was only applied in the conditioning solution for activation and steady-state desensitisation curves in the presence of peptide. Control pH-dependence curves were determined in the absence of any Ma-3. When assessing the effect of Ma-3 on the rASIC1a: ASIC1b chimeras (C92 and C166; and for the comparative wild-type data), the conditioning pH was 7.45 and stimulating pH 5 (Fig. 3b). Specific details of the conditioning and stimulating pH are noted in each figure legend.
Data were analysed using pCLAMP-Clampfit software (Version 11, Molecular Devices, CA, USA) and GraphPad Prism 9.5 and 10.2.2 (GraphPad Software, San Diego, CA, USA). To obtain the Hill coefficient (nH) and half-maximal response (EC50, IC50, or pH50) the Hill equation was fitted to normalised concentration-response curves by using a non-linear fit to the data of a four-parameter logistic equation (“sigmoidal dose-response” in GraphPad Prism 9.5). […]

H-SLKCYQHGAVVTCHRDMKFCYHNIGMPFRNLKLILQGCSSSCSETENNKCCSTDRCNK (disulfide 4-20, 13-38, 42-50, 51-56 (inferred)) [K8A]
loss of potency relative to wild-type Ma-3 (hASIC1a): ~ 4 fold | remaining activity at 0.3 µM ([1]; n = 5–8): 65%

H-SLKCYQHGKVVTCHRDAKFCYHNIGMPFRNLKLILQGCSSSCSETENNKCCSTDRCNK (disulfide 4-20, 13-38, 42-50, 51-56 (inferred)) [M16A]
loss of potency relative to wild-type Ma-3 (hASIC1a): no change | remaining activity at 0.3 µM ([1]; n = 5–8): 56%

H-SLKCYQHGKVVTCHRDMKFCYHNIGMPFRNLKLILQGCSSSCSETENNKCCSTDRCNK (disulfide 4-20, 13-38, 42-50, 51-56 (inferred)) [Ma-3, mambalgin-3]
pH50 of activation in presence of Ma-3 (hASIC1a; 100 nM Ma-3 in the pH 8 conditioning solution, Hill fit, n = 5–6): 5.86 | shift of the activation curve towards acidic values ([1]; 100 nM Ma-3, conditioning pH 8): 0.11 pH units | slope of activation curve in presence of Ma-3 ([1]; 100 nM Ma-3, conditioning pH 8, mean ± SEM): 2.68 ± 0.34 | change of pH50 of the SSD curve ([1]; 100 nM Ma-3, stimulating pH 5): remained unchanged | slope of SSD curve in presence of Ma-3 ([1]; 100 nM Ma-3, stimulating pH 5, mean ± SEM): 5.47 ± 0.95 | pH50 of activation in presence of Ma-3 ([1]; 100 nM Ma-3 in conditioning solution, conditioning pH 8, Hill fit, mean ± SEM, n = 5–8): 6.03 ± 0.02 | pH50 of steady-state desensitisation (SSD) in presence of Ma-3 ([1]; 100 nM Ma-3 in conditioning solution, stimulating pH 5, Hill fit, mean ± SEM, n = 5–8): 7.12 ± 0.01 | remaining activity at 0.3 µM ([1]; n = 5–8): 48%
